Where a name gives a salt, the structure may show the parent alone.
Experiments:
[1] = test system: monoamine transporters, MATs (SERT, NET, DAT, VMAT2); experiment: Monoamine uptake inhibition, monoamine transporters collectively; assay type: cell-based; conditions: in words
Description: The ability of the compounds of the present invention to inhibit uptake of monoamines by the serotonin transporter (SERT), norepinephrine transporter (NET), dopamine transporter (DAT), and vesicular monoamine transporter 2 (VMAT2) (collectively monoamine transporters, MATs) was measured using fluorescent substrate uptake assays in transfected cells (Table 14). The binding affinities of select compounds were also determined in radioligand displacement assays at SERT, NET, and/or DAT (Table 14).
Uptake Inhibition. The ability of test compounds to block monoamine uptake by SERT, NET, DAT, and VMAT2 was determined using the Neurotransmitter Transporter Uptake Assay Kit manufactured by Molecular Devices (Cat #R8173). Briefly, stably transfected cells expressing the MAT of interest (HEK293 cells for SERT and NET; CHO cells for DAT) were grown and plated into 384-well plates at a concentration of 20,000 cells per well. Plates were then incubated for 16-20 h at 37° C. and 5% CO2. The medium was then aspirated and replaced with 25 μL of assay buffer (20 mM HEPES in HBSS, containing 0.1% BSA) containing the test compounds at the appropriate concentrations. Plates were then centrifuged at 300 rpm for 15 s and then incubated at 37° C. for 30 minutes. At this time, 25 μL of the proprietary fluorescent dye solution was added, the plates were incubated at 37° C. for 60 minutes, and then fluorescence was quantified on a plate reader (excitation wavelength=440 nm, emission wavelength=520 nm). The proprietary dye solution contains a mixture of 1) a fluorescent dye that mimics the endogenous substrates of MATs and is thereby actively transported to the intracellular compartment in the absence of an inhibitor and 2) a masking dye that inhibits the fluorescence of dye 1 in the extracellular compartment. Therefore, the overall fluorescence of the system increases as the fluorescent dye is transported into the cells.

[2] = HLM stability (High Activity); assay type: in vitro ADME; conditions: both sexes, human, liver microsomes, pH 7.4, Condition 2 (High Activity), 1.0 mg protein/mL
Summary of the method: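 Pooled male and female human liver microsomes, 1.0 mg protein/mL, in 100 mM PBS pH 7.4 with NADPH-regenerating system; compound 1 μM at 37° C, five time points over 60 min. Parent remaining by LC-MS/MS; kel, t1/2 and Clint from linear regression of ln(AUC) versus time.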

[3] = test system: MK-801 binding site of the N-methyl-D-aspartate receptor (NMDAR); experiment: NMDAR radioligand binding with [3H]MK-801, Method B; design: species or system Sprague Dawley rat; conditions: for Ki: MK-801 site, Method B, male Sprague Dawley rat cortex, 5.0 nM [3H]MK-801, read-out: NMDAR Ki ± SEM
Description: Radioligand Binding—Method B. Affinity of the test compounds for NMDAR was determined in radioligand binding experiments with [^3H]MK-801 by WuXi AppTec (Hong Kong) Limited, under the conditions described in Table 13.

[4] = target: T1, norepinephrine transporter (NET) (Homo sapiens, UniProt P23975); experiment: Fluorescent substrate uptake inhibition, NET; assay type: cell-based; conditions: for inhibition at 10 µM: HEK293 cells expressing NET
T1 construct: expressed in transfected cells; host or cells: HEK293
T1 sequence (P23975 whole entry, species assumed): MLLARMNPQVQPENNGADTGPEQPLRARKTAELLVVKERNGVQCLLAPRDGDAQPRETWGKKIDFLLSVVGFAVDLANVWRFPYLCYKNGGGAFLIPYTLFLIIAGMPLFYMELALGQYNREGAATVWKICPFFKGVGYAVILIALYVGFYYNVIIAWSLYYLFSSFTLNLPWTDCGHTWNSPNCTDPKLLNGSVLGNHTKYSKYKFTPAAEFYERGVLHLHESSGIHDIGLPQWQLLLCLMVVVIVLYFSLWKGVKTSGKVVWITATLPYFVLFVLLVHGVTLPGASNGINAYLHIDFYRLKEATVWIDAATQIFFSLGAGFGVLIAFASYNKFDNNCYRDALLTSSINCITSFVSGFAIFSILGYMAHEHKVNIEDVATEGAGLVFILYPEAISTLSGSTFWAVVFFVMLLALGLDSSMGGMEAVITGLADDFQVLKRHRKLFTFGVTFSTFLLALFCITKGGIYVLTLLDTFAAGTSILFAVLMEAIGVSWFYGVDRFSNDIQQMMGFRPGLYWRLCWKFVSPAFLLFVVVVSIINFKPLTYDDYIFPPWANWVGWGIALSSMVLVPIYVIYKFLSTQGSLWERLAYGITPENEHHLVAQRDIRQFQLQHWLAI

[5] = MLM stability (High Activity); assay type: in vitro ADME, BALB/c mice; conditions: male, BALB/c, mouse, liver microsomes, pH 7.4, Condition 2 (High Activity), 1.0 mg protein/mL
Summary of the method: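 Pooled male BALB/c mouse liver microsomes (1.0 mg/mL) in 100 mM PBS pH 7.4 with NADPH-regenerating system; compound 1 μM, 37 °C, five time points over 60 min, duplicate; NADPH-free controls. Parent remaining by LC-MS/MS; kel, t1/2 and Clint from linear regression of ln(AUC) versus time.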

Row | Compound | selectivity for NMDAR (over MATs) [1] | half-life at 1 μM [2] [h] | microsomal CLint at 1 μM [2] [µL/min/mg] | NMDAR binding affinity, comparison in words ([3]; 14R vs rac-ketamine, (R)-ketamine, (S)-ketamine and 14S, R enantiomers vs S enantiomers or racemates) | Ki [3] [µM] | inhibition at 10 µM [4] [%] | half-life at 1 μM [5] [h] | microsomal CLint at 1 μM [5] [µL/min/mg] | IC50 [4] [µM]
1 | CN[C@@]1(c2ccccc2)CCCCC1=O [Compound 14R, (R)-2-(methylamino)-2-phenylcyclohexan-1-one] | greater selectivity for NMDAR | 9.77 | 1 | weaker NMDAR binding | 4.5 | 1.7 | 3.28 | 4 | –
2 | O=C1CCCC[C@]1(c1ccccc1)N1CCC1 [Compound 84R, (R)-2-(azetidin-1-yl)-2-phenyl-cyclohexan-1-one] | – | 2.75 | 4 | – | 2.3 | 29.1 | 0.378 | 30 | 15.4
3 | CNC1(c2ccccc2)CCCCC1=O (racemic) [Compound 14rac, 2-(methylamino)-2-phenylcyclohexan-1-one hydrochloride] | – | 6.12 | 2 | – | – | – | – | – | –
4 | [2H]C([2H])([2H])N[C@@]1(c2ccccc2)CCCCC1=O [Compound 88R, (R)-2-((methyl-d3)amino)-2-phenylcyclohexan-1-one] | greater selectivity for NMDAR | 2.92 | 4 | – | 3.4 | 10.6 | 1.76 | 7 | –
5 | O=C1CCCC[C@@]1(c1ccccc1)N1CCC1 [Compound 84S, (S)-2-(azetidin-1-yl)-2-phenyl-cyclohexan-1-one] | – | 2.76 | 4 | – | 1.3 | 34.9 | 0.322 | 36 | 29.7
6 | N[C@@]1(c2ccccc2)CCCCC1=O [Compound 11R, (R)-2-amino-2-phenyl-cyclohexan-1-one] | – | 3.31 | 3 | – | 9.4 | 10.4 | 2.82 | 4 | –
7 | Cc1ccccc1[C@]1(N)CCCCC1=O [Compound 114R, (R)-2-amino-2-(o-tolyl)cyclohexan-1-one] | – | – | – | – | > 23 | 7.7 | – | – | –
8 | CN[C@]1(c2ccccc2)CCCCC1=O [Compound 14S, (S)-2-(methylamino)-2-phenylcyclohexan-1-one] | – | 6.18 | 2 | – | 0.69 | 1.8 | 4.38 | 3 | –
9 | CN[C@]1(c2cccc(F)c2)CCCCC1=O [Compound 19S, (5)-2-(3-fluorophenyl)-2-(methylamino)cyclohexan-1-one] | greater selectivity for NMDAR | 1.59 | 7 | – | 2.1 | 10.3 | 1.01 | 11 | –
10 | Cc1ccccc1[C@@]1(N)CCCCC1=O [Compound 114S, (S)-2-amino-2-(o-tolyl)cyclohexan-1-one] | greater selectivity for NMDAR | – | – | – | 2.5 | 10.4 | – | – | –
11 | COCCNC1(c2ccccc2)CCCCC1=O (racemic) [Compound 29rac, 2-((2-methoxyethyl)amino)-2-phenylcyclohexan-1-one] | greater selectivity for NMDAR | 2.33 | 5 | – | 4.4 | – | 0.283 | 41 | –
12 | CNC1(c2ccccc2Cl)CCCCC1=O (racemic) [rac-ketamine, racemic ketamine, reference compound] | – | 0.613 | 19 | – | – | – | 0.155 | 75 | –
13 | O=C1CCCCC1(c1ccccc1)N1CCCC1 (racemic) [Compound 27rac, 2-phenyl-2-(pyrrolidin-1-yl)cyclohexan-1-one] | – | 3.87 | 3 | – | 1.1 | 40.8 | 0.583 | 20 | 4.9
14 | N[C@]1(c2ccccc2)CCCCC1=O [Compound 11S, (S)-2-amino-2-phenyl-cyclohexan-1-one] | greater selectivity for NMDAR | 3.25 | 4 | – | 1.2 | 14.8 | 3.62 | 3 | –

Source: patent US11344510B2, “Arylcyclohexylamine derivatives and their use in the treatment of psychiatric disorders” (Gilgamesh Pharmaceuticals, Inc., priority 2019, dated 2022)
